Values of other authors, collected in patent US9908851B2, “2-piperidinyl substituted N,3-dihydroxybutanamides” (Duke University, priority 2013, dated 2018).
In brackets after ≈: the same amount, converted by molar mass.

Test system: N. gonorrhoeae 35/02 (drug-resistant strain)
Conditions: strain 35/02; resistance profile of the strain

Molecule | MIC
CO/N=C(\C(=O)N[C@@H]1C(=O)N2C(C(=O)O)=C(CSc3nc(=O)c(=O)[nH]n3C)CS[C@H]12)c1csc(N)n1 [ceftriaxone] | 0.12 µg/mL (≈ 0.216 µM)
penicillin | 6 µg/mL
